Experiments:
[1] = Control: conductance measurement on bare carbon nanotube transistors; conditions: bare CNT
Protocol: (§1) To measure the effects of odorants on the biosensor using human olfactory receptor functionalized transistors, drops of 9 μl phosphate buffered saline (PBS) were placed onto the human olfactory receptor functionalized transistors manufactured in […]. Subsequently, the source-drain current was monitored after the introduction of a solution containing specific odorants. A bias voltage of 100 mV was maintained at all time during the electrical measurement (See FIG. 8).
(§2) The results are shown in FIGS. 12 and 13, respectively. As shown respectively in FIGS. 12 and 13, each of the conductance modulations was observed on the biosensors using modified carbon nanotube transistors with lipid membranes in which hOR2AG1 was not included and bare carbon nanotube transistors, after the introduction of amyl butyrate at 100 mM.

[2] = target: T1, human olfactory receptor 2AG1 (hOR2AG1) protein (Homo sapiens, UniProt Q9H205); assay: Conductance (source-drain current) measurement of biosensor using hOR2AG1-functionalized swCNT transistors after introduction of odorants; format: biochemical; conditions: for Detection Limit: lipid membranes with hOR2AG1 on swCNT-FET, odorant solution in PBS, bias 100 mV
T1 construct: made in house; host or cells: Escherichia coli
T1 sequence (Q9H205 1-316): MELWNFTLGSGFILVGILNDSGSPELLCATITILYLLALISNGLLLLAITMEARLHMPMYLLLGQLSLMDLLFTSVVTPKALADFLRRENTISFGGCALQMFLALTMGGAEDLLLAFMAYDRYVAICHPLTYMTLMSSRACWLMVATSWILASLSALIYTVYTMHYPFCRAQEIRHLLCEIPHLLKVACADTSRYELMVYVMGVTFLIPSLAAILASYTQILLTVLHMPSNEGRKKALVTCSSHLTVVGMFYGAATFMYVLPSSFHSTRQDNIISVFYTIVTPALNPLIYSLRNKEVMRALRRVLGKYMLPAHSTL
Protocol: 1 μl of the hOR2AG1-containing fraction collected in Example 1 was evenly spread to cover the swCNTs and electrodes, and vacuum-dried for 4 hours to fix the hOR2AG1, thereby manufacturing human olfactory receptor-functionalized carbon nanotube transistors.
as §1
A 1 M stock solution of the odorants was prepared, and additional dilutions (from 10^−1 M to 10^−13 M) were obtained by serial 1:10 dilutions in PBS.
Butyl butyrate, phenyl valerate, and propyl butyrate were introduced at various concentrations on the biosensors using hOR2AG1 functionalized transistors manufactured in Example 2 of the present invention, each of the conductance modulations was measured, and the results were recorded in FIGS. 14 to 16, respectively. The arrows illustrated in FIGS. 14 to 16 show time points of introduction of each odorant.

hOR2AG1 = target: T2, hOR2AG1 (Homo sapiens, UniProt Q9H205); conditions: known; cited from earlier work
T2 sequence (Q9H205 1-316): T1 sequence (Q9H205 1-316)

[3] = Control: conductance measurement on carbon nanotube transistors with lipid membranes in which hOR2AG1 was not included; conditions: lipid membranes without olfactory receptors
Protocol: as §1, §2

SMILES	Detection Limit [1] [mM]	Source-drain current after introduction of odorant ([2]; 100 fM, 1 pM, 10 pM and 100 pM (FIG. 10))	Detection Limit [2] [mM]	Effect on biosensor conductance ([2]; odorant at 1 pM (FIG. 11))	Activation of hOR2AG1 (hOR2AG1)	Detection Limit [3] [mM]	Effect on biosensor conductance ([2]; odorant at 100 μM (FIG. 11))
CCCCCOC(=O)CCC [Amyl butyrate (AB), amyl butyrate]	100	sharply decreased	1e-10	sharply decreased	activated	100	
CCCCCOC(=O)CCCC [Pentyl valerate (PV), pentyl valerate]			10				did not affect the biosensor
CCCOC(=O)CCC [Propyl butyrate (PB), propyl butyrate]			10				did not affect the biosensor
CCCCOC(=O)CCC [Butyl butyrate (BB), butyl butyrate]			10				did not affect the biosensor

From patent US8377706B2, “Olfactory receptor-functionalized transistors for highly selective bioelectronic nose and biosensor using the same” (Seoul National University Industry Foundation, priority 2008, dated 2013)
